Laboratory results as given in patent publication US9926529B2, “Derivation of neural stem cells and dopaminergic neurons from human pluripotent stem cells” (International Stem Cell Corporation, priority 2012, dated 2018).
Structures can show the parent of a compound that is named as a salt. Where two headings read alike, the source gives them in different places.

System: hPSC-NSCs
Assay: RT-PCR expression of dopamine neuron genes in hPSC-NSCs treated with small molecule hits
Format: cell-based, human
Conditions: for fold induction at 2.5 µM: Homo sapiens, Neuron, 336 h
Experimental: The method specifically involved treating both hESC-H9-NSCs (Invitrogen) and hPSC-NSCs with Purmorphamine (2 μM) and FGF8 (100 ng/mL) in NB medium [NeuroBasal medium, 1× GlutaMAX, 1× N2/B27 Supplement (Invitrogen)] for 7 days. After 7 days of Purmorphamine and FGF8 treatment, the NSCs were dissociated with Accutase (Sigma) and plated 20,000 cells/mL into Matrigel coated 96 well plates and treated with small molecule library (Torcris 1120 Biologically Active Compounds) at 2.5 μM final concentration for two weeks (FIG. 6A). Two weeks after treatment with small molecules, all wells were visually observed and scored based on neurite density and dopamine release. For measuring neurite density, cells were fixed with 4% paraformaldehyde and phase contrast images were acquired using Cellavista Cell Imaging System (Roche Applied Science) from randomly selected fields. Neurite density was measured using the Cellavista density software image processing program. Each experimental condition was done in duplicate wells, and at least three independent experiments were conducted to acquire the final results.
Conditioned medium from the top neurite inducers (Table 1) (wells containing the highest density of neurites compare to control 0.1% DMSO treated) were collected and analyzed using a dopamine ELISA assay (Cosmo Bio). Conditioned medium was collected from samples containing 50,000 cells per well and centrifuged at 3000 RPM to remove cell debris. Supernatant was then collected and analyzed for quantitative determination of dopamine using a commercial dopamine ELISA assay kit (CusaCosmo Bio). Data analysis was performed using the microtiter plate reader (BIO-TEK Synergy 2). The results presented are from three independent experiments (n=3) and represented as mean±standard error of mean (s.e.m.) and statistical analysis was performed using the two-tailed Student's t-test with a confidence level of 95% (α=0.05) with statistical significance of P<0.05. Additionally, total RNA from each well were collected and analyze by RT-PCR for expression of TuJ1, MAP2, TH, GRK2, EN1, DAT, AADC, PAX2, NURR1, PITX3 and LMX1B from hPSC-NSCs (Table 2). […] Analysis of the ELISA data indicated the top small molecule neurite inducers produced higher levels of dopamine than control non-treated cells (1.5 ng/mL). […] The percentages of TH positive cells produced by chemical treatment with Kenpaullone (33%), Guggulsterone (35%), Kynurenic Acid (19%), Immedthridine Dihydrobromide (21%), and Dimaprit Dihydrochloride (18%) were higher than 15% of TH positive cells obtained from hPSC-NSCs differentiated for ≥1 month using a standard dopaminergic differentiation medium (BDNF 20 ng/mL, GDNF 20 ng/mL, cAMP 200 μM, Abscorbic Acid 200 μM, TGFβ3 2 ng/mL and DAPT).
Total RNA from at least triplicate samples with around 1 million cells each was isolated using either QIAsymphony automatic purification system or RNeasy Plus Mini kit, according to manufacturer's instructions (Qiagen). Total RNA was used for reverse transcription with the iScript cDNA synthesis kit (Biorad) and Px2 Thermal Cycler (Thermo Scientific). To analyze gene expression, PCR reactions were performed in duplicate using 1/25-th of the cDNA per reaction and the QuantiTect Primer Assay and Quantitest SYBR Green master mix (Qiagen). qPCR was performed using the Rotor-Gene Q (Qiagen) 5 min at 95° C., 5 s at 92° C., and 20 s at 60° C. for 37 cycles followed by melt to check the specificity of the amplicons from 50 to 99° C. raising by 1° C. each step. Relative quantification was performed against a standard curve and quantified values were normalized against the input determined by PPIG. The primers used for the analysis are listed in Supplementary Table S1. […]

[1] = hPSC-NSCs primed 7 days with Purmorphamine and FGF8, small molecule 2.5 μM for two weeks
[2] = hPSC-NSCs primed 7 days with Purmorphamine and FGF8, small molecule 2.5 μM for two weeks, read-out: DDC (AADC) expression by RT-PCR
[3] = hPSC-NSCs primed 7 days with Purmorphamine and FGF8, small molecule 2.5 μM for two weeks, read-out: EN1 expression by RT-PCR
[4] = hPSC-NSCs primed 7 days with Purmorphamine and FGF8, small molecule 2.5 μM for two weeks, read-out: KCNJ6 expression by RT-PCR
[5] = hPSC-NSCs primed 7 days with Purmorphamine and FGF8, small molecule 2.5 μM for two weeks, read-out: LMX1B expression by RT-PCR
[6] = hPSC-NSCs primed 7 days with Purmorphamine and FGF8, small molecule 2.5 μM for two weeks, read-out: MAP2 expression by RT-PCR
[7] = hPSC-NSCs primed 7 days with Purmorphamine and FGF8, small molecule 2.5 μM for two weeks, read-out: NR4A2 (NURR1) expression by RT-PCR
[8] = hPSC-NSCs primed 7 days with Purmorphamine and FGF8, small molecule 2.5 μM for two weeks, read-out: PITX3 expression by RT-PCR
[9] = hPSC-NSCs primed 7 days with Purmorphamine and FGF8, small molecule 2.5 μM for two weeks, read-out: Pax2 expression by RT-PCR
[10] = hPSC-NSCs primed 7 days with Purmorphamine and FGF8, small molecule 2.5 μM for two weeks, read-out: SLC6A3 (DAT) expression by RT-PCR
[11] = hPSC-NSCs primed 7 days with Purmorphamine and FGF8, small molecule 2.5 μM for two weeks, read-out: TH1 expression by RT-PCR
[12] = hPSC-NSCs primed 7 days with Purmorphamine and FGF8, small molecule 2.5 μM for two weeks, read-out: Tubb3 expression by RT-PCR

Compound | DDC (AADC) expression by RT-PCR [1] | EN1 expression by RT-PCR [1] | KCNJ6 (GRK2) expression by RT-PCR [1] | LMX1B expression by RT-PCR [1] | MAP2 expression by RT-PCR [1] | NR4A2 (NURR1) expression by RT-PCR [1] | SLC6A3 (DAT) expression by RT-PCR [1] | TH1 expression by RT-PCR [1] | Tubb3 expression by RT-PCR [1] | fold induction at 2.5 µM [2] | fold induction at 2.5 µM [3] | fold induction at 2.5 µM [4] | fold induction at 2.5 µM [5] | fold induction at 2.5 µM [6] | fold induction at 2.5 µM [7] | fold induction at 2.5 µM [8] | fold induction at 2.5 µM [9] | fold induction at 2.5 µM [10] | fold induction at 2.5 µM [11] | fold induction at 2.5 µM [12] | further results
O=C(O)Cc1cccnc1C(=O)O [Homoquinolinic acid] | 20.19 | 4.83 | 1.76 | 2.32 | 10.03 | 1.99 | 19.18 | 10.77 | 2.95 | – | – | – | – | – | – | – | – | – | – | – | PITX3 expression by RT-PCR [1]: 0.4; Pax2 expression by RT-PCR [1]: 0.05
Cl.O=C(O)COc1ccc(OCCNC[C@H](O)COc2ccccc2)cc1 [ICI 215,001 hydrochloride] | 29.34 | 8.52 | 1.48 | 4.79 | 11.2 | 2.88 | 1.77 | 6.04 | 5.54 | – | – | – | – | – | – | – | – | – | – | – | Pax2 expression by RT-PCR [1]: 39.43
N[C@@H](CS(=O)O)C(=O)O [L-Cysteinesulfinic acid] | 17.27 | 5.76 | 3.02 | 2.66 | 9.52 | 2.02 | 1.54 | 7.84 | 3.41 | – | – | – | – | – | – | – | – | – | – | – | Pax2 expression by RT-PCR [1]: 0.22
c1ccc(-c2[nH]ncc2-c2ccnc3ccccc23)nc1 [LY 364947] | 64.48 | 7.42 | 1.09 | – | 10.48 | 3.01 | 5.08 | 5.23 | 4.23 | – | – | – | – | – | – | – | – | – | – | – | –
O=C1N(c2ccccc2)c2ccccc2C1(Cc1ccncc1)Cc1ccncc1 [Linopirdine dihydrochloride] | – | – | – | – | – | – | – | – | – | 7.02 | 4.06 | 0.16 | 2.84 | 7.02 | 0.69 | 0.26 | 0.3 | 0.28 | 8.61 | 3.74 | –
CC1(C)NC(=O)N(c2ccc([N+](=O)[O-])c(C(F)(F)F)c2)C1=O [Nilutamide] | – | – | – | – | – | – | – | – | – | 172 | 5.33 | 2.1 | 2.55 | 10.6 | 1.43 | 0.27 | 0.9 | 2.07 | 10.1 | 3.81 | –
CCN1CCC[C@H]1CNC(=O)c1c(OC)ccc(Br)c1OC [Remoxipride hydrochloride] | – | – | – | – | – | – | – | – | – | 13.8 | 6.6 | 0.93 | 3.16 | 11.5 | 3.21 | 0.69 | 0.86 | 6.41 | 12 | 5.73 | –
CC1=C(/C=C/C(C)=C/C=C/C(C)=C/C(=O)O)C(C)(C)CCC1 [Retinoic acid] | – | – | – | – | – | – | – | – | – | 110 | 12.8 | 2.8 | 1.25 | 7.7 | 153 | 0.04 | 0.5 | 1.99 | 1.99 | 7.05 | –
CCOC(=O)c1ncn2c1CN(C)C(=O)c1cc(N=[N+]=[N-])ccc1-2 [Ro 15-4513] | 12.88 | 5.9 | 0.09 | – | 7.19 | 0.9 | 0.46 | 8.49 | 4.9 | – | – | – | – | – | – | – | – | – | – | – | PITX3 expression by RT-PCR [1]: 0.72
FC(F)(F)c1cccc(-c2noc(-c3cc(-c4ccccc4)c(C(F)(F)F)s3)n2)c1 [SEW 2871] | – | – | – | – | – | – | – | – | – | 68.3 | 8.08 | 0.88 | 3.65 | 12.3 | 2.36 | – | 1.59 | 32.1 | 7.6 | 5.17 | –
O=C(CCCN1CCC2(CC1)C(=O)NCN2c1ccccc1)c1ccc(F)cc1 [Spiperone hydrochloride] | – | – | – | – | – | – | – | – | – | 13.1 | 7.4 | 0.24 | – | 9.66 | 0.58 | 0.18 | – | 1.25 | 11.1 | 3.57 | –
C/C(=C\c1ccc(C(=O)O)cc1)c1ccc2c(c1)C(C)(C)CCC2(C)C [TTNPB] | 21.95 | 9.42 | 0.69 | 1.45 | 6.36 | 14.8 | 0.5 | 5.5 | 4.64 | – | – | – | – | – | – | – | – | – | – | – | Pax2 expression by RT-PCR [1]: 0.09
S=C(NC1CCCCC1)N1CCC(c2cnc[nH]2)CC1 [Thioperamide] | – | – | – | – | – | – | – | – | – | 95.6 | 7.72 | 2.21 | 3.81 | 13.2 | 3.43 | 0.28 | 1.15 | – | 8.38 | 5.6 | fold induction at 2.5 µM (read-out: SLC6A3 (DAT) expression by RT-PCR): 25.5
Cl.N=C(N)NC(=N)Nc1cccc(Cl)c1 [m-Chlorophenylbiguanide hydrochloride] | 69.41 | 7.96 | 1.65 | 3.73 | 9.6 | 5.51 | 1.53 | 6.67 | 4.97 | – | – | – | – | – | – | – | – | – | – | – | Pax2 expression by RT-PCR [1]: 0.28
